Results taken from patent publication US20220347175A1, “PYRIDAZINONE DERIVATIVE” (Sumitomo Dainippon Pharma Co., Ltd., priority 2018, published 2022).

Columns and labels:
human Nav1.5 = molecular target: T1, human Nav1.5 (Homo sapiens, UniProt Q14524); assay: Amplification of Nav1.5-derived voltage-dependent sodium current (Nav1.5 current), cell line stably expressing human Nav1.5, automated patch clamp; assay type: cell-based
T1 construct: expressed in transfected cells; host or cells: CHO-K1 (T-REx System, ThermoFisher Scientific)

human Nav1.1 = molecular target: T2, human Nav1.1 (Homo sapiens, UniProt P35498); assay: Amplification of Nav1.1-derived voltage-dependent sodium current (Nav1.1 current), cell line stably expressing human Nav1.1, automated patch clamp; assay type: cell-based
T2 construct: host or cells: HEK293
Procedure, shortened: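 Amplification rate (%) is 100 × post-compound/pre-compound Nav1.1 peak current or AUC, minus 100. Ramp-evoked sodium currents were recorded by automated patch clamp in a human Nav1.1 HEK293 stable line, restricted to cells exceeding 500 pA, with compounds added in extracellular solution containing 1% DMSO.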

T1 sequence (Q14524 1-2015 isoform Q14524-2): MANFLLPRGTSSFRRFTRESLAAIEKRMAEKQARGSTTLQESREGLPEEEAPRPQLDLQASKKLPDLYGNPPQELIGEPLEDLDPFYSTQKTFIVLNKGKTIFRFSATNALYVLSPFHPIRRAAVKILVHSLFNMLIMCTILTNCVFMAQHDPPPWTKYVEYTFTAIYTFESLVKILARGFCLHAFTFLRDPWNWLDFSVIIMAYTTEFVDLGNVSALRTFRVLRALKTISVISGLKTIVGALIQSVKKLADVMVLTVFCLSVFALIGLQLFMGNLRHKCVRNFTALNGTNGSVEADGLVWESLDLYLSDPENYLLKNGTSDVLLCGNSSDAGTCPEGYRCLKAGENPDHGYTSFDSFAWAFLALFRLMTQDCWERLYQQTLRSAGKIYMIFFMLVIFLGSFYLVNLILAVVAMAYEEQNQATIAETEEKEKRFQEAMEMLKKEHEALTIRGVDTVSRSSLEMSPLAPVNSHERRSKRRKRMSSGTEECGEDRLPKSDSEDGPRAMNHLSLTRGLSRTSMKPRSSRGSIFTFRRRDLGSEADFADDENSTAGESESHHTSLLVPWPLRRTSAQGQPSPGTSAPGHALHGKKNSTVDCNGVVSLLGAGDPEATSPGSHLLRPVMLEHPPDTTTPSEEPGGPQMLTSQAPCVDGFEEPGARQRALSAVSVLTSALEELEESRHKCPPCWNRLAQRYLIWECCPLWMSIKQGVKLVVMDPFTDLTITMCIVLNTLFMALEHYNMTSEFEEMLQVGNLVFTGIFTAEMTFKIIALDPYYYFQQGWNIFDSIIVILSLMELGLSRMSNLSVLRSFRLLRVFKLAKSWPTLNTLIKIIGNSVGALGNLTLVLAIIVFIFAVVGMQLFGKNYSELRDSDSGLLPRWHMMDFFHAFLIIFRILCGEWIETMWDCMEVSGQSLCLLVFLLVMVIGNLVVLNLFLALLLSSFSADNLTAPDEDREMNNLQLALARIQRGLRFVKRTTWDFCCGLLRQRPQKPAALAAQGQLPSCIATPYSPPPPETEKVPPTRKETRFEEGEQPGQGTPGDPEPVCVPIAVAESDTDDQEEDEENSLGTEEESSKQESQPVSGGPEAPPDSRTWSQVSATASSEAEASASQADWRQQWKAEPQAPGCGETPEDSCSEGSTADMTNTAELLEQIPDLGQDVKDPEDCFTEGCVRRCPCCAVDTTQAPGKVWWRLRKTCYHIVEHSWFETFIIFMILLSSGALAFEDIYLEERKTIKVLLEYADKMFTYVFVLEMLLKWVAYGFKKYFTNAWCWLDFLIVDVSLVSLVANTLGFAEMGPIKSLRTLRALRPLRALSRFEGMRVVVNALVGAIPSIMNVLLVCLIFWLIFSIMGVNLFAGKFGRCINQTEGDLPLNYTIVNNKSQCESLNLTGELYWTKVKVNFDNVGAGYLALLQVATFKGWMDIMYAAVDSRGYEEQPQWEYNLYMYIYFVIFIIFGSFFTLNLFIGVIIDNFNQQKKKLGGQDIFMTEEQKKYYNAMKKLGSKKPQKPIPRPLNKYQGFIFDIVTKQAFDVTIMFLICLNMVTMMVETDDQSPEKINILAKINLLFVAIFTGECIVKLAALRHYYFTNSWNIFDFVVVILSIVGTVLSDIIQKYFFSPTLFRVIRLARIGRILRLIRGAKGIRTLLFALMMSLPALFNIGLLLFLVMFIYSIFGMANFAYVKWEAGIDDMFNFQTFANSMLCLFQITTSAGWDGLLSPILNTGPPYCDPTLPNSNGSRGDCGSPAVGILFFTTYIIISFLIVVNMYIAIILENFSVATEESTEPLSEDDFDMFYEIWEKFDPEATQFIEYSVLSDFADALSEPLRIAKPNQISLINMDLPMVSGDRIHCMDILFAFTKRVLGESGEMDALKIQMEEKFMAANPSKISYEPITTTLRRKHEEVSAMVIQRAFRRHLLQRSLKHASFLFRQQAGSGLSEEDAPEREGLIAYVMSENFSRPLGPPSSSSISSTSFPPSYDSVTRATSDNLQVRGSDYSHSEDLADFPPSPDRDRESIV

Nav1.1 current amplification rate (%) (human Nav1.1; 10 μmol/L compound, change of the area under the curve of Nav1.1 current (Test Result 1))	activation at 1 µM (human Nav1.1; compound 1 μmol/L, HEK293 stably expressing human Nav1.1, read-out: Nav1.1 current amplification rate (%)) [%]	Structure (SMILES)	Nav1.5 current amplification rate (%) (human Nav1.5; 10 μmol/L compound, change of the area under the curve of Nav1.5 current (Test Result 1))	activation at 1 µM (human Nav1.5; compound 1 μmol/L, CHO-K1 stably expressing human Nav1.5, read-out: Nav1.5 current amplification rate (%)) [%]
148	–	COc1cc(=O)n(CC(=O)N2CCN(c3cncc(F)c3)CC2)nc1C1=CCC(C(F)(F)F)CC1 (racemic) [Example 486]	8	–
–	112	C[C@H]1CC=C(c2ccc(=O)n(CC(=O)Nc3ccc4ncnn4c3)n2)CC1 [Example 540, 2-{3-[(4R)-4-methylcyclohex-1-en-1-yl]-6-oxopyridazin-1(6H)-yl}-N-([1,2,4]triazolo[1,5-a]pyridin-6-yl)acetamide]	–	15
